Results as given in patent US7064120B2, “Tricyclic pyridyl carboxamides and derivatives thereof tocolytic oxytocin receptor antagonists” (Wyeth, priority 2001, dated 2006).

Target: T1, human vasopressin V1a receptor subtype (Homo sapiens, UniProt P37288)
T1 construct: host or cells: CHO cells, stably transfected (pZeoSV vector for the Thibonnier line)
Assay: Vasopressin binding in CHO cell membranes expressing human vasopressin V1a subtype receptors ([3H]Manning ligand radioligand binding)
Conditions: 100 nM
How it was run: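 Radioligand displacement: [3H]Manning ligand, added as 8 nM stock, binds human V1a receptor in CHO-cell membranes (25–50 μg/well), pH 7.4 Tris buffer with protease inhibitors, 60 min room temperature. Bound counts collected by filter harvesting; values are percent inhibition at stated concentration or nanomolar IC50.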

T1 sequence (P37288 whole entry): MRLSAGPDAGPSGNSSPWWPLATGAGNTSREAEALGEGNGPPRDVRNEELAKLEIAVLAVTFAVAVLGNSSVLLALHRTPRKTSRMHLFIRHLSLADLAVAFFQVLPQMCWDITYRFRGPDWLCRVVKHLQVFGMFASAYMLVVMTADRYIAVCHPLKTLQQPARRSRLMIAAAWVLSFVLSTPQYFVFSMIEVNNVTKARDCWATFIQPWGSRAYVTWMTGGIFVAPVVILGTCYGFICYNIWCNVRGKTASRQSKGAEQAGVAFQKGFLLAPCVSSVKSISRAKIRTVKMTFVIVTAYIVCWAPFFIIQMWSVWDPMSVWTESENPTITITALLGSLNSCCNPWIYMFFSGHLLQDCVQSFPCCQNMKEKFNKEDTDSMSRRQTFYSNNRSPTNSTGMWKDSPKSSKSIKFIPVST

First: COc1cccc(-c2ccc(C(=O)N3Cc4ccc(C(=O)N(C)CCc5ccncc5)n4Cc4ccccc43)cc2C)c1 [Example 128, 10-[(3′-Methoxy-2-methyl-[1,1′-biphenyl]-4-yl)carbonyl]-N-methyl-N-[2-(4-pyridinyl)ethyl]-10,11-dihydro-5H-pyrrolo[2,1-c][1,4]benzodiazepine-3-carboxamide]
Second: COc1cccc(-c2ccc(C(=O)N3Cc4ccc(C(=O)N(C)CCc5ccncc5)n4Cc4ccccc43)cc2OC)c1 [Example 135, 10-[(2,3′-Dimethoxy-[1,1′-biphenyl]-4-yl)carbonyl]-N-methyl-N-[2-(4-pyridinyl)ethyl]-10,11-dihydro-5H-pyrrolo[2,1-c][1,4]benzodiazepine-3-carboxamide]
The inhibition at 0.1 µM of the first is lower: 31% for the first, 68% for the second.

Going from `COc1ccccc1-c1ccc(C(=O)N2Cc3ccc(C(=O)N(C)CCc4ccncc4)n3Cc3ccccc32)cc1` [Example 129, 10-[(2′-Methoxy-[1,1′-biphenyl]-4-yl)carbonyl]-N-methyl-N-[2-(4-pyridinyl)ethyl]-10,11-dihydro-5H-pyrrolo[2,1-c][1,4]benzodiazepine-3-carboxamide] to `Cc1ccccc1-c1ccc(C(=O)N2Cc3ccc(C(=O)N(C)CCc4ccncc4)n3Cc3ccccc32)cc1` [Example 130, N-Methyl-10-[(2′-methyl-[1,1′-biphenyl]-4-yl)carbonyl]-N-[2-(4-pyridinyl)ethyl]-10,11-dihydro-5H-pyrrolo[2,1-c][1,4]benzodiazepine-3-carboxamide], the inhibition at 0.1 µM falls from 54% to 5%.

Compared with `COc1cc(C(=O)N2Cc3ccc(C(=O)N(C)CCc4ccncc4)n3Cc3ccccc32)ccc1-c1ccccc1C` [Example 131, 10-[(2-Methoxy-2′-methyl-[1,1′-biphenyl]-4-yl)carbonyl]-N-methyl-N-[2-(4-pyridinyl)ethyl]-10,11-dihydro-5H-pyrrolo[2,1-c][1,4]benzodiazepine-3-carboxamide], `COc1cc(C(=O)N2Cc3ccc(C(=O)N(C)CCc4ccncc4)n3Cc3ccccc32)ccc1-c1cccc2ccccc12` [Example 134, 10-[3-Methoxy-4-(naphthalen-1-yl)benzoyl]-N-methyl-N-[2-(4-pyridinyl)ethyl]-10,11-dihydro-5H-pyrrolo[2,1-c][1,4]benzodiazepine-3-carboxamide] is lower in inhibition at 0.1 µM: 83% for the first, 30% for the second.

Going from `COc1cc(-c2ccccc2C)c(Cl)cc1C(=O)N1Cc2ccc(C(=O)N(C)CCc3ccncc3)n2Cc2ccccc21` [Example 132, 10-[(6-Chloro-3-methoxy-2′-methyl-[1,1′-biphenyl]-4-yl)carbonyl]-N-methyl-N-[2-(4-pyridinyl)ethyl]-10,11-dihydro-5H-pyrrolo[2,1-c][1,4]benzodiazepine-3-carboxamide] to `COc1cccc(-c2cc(OC)c(C(=O)N3Cc4ccc(C(=O)N(C)CCc5ccncc5)n4Cc4ccccc43)cc2Cl)c1` [Example 133, 10-[(6-Chloro-3,3′-dimethoxy-[1,1′-biphenyl]-4-yl)carbonyl]-N-methyl-N-[2-(4-pyridinyl)ethyl]-10,11-dihydro-5H-pyrrolo[2,1-c][1,4]benzodiazepine-3-carboxamide], the inhibition at 0.1 µM falls from 26% to 19%.

Compared with `CN(CCc1ccncc1)C(=O)c1ccc2n1Cc1ccccc1N(C(=O)c1ccc(-c3cccc4ccccc34)cc1Cl)C2` [Example 136, 10-[2-Chloro-4-(naphthalen-1-yl)benzoyl]-N-methyl-N-[2-(4-pyridinyl)ethyl]-10,11-dihydro-5H-pyrrolo[2,1-c][1,4]benzodiazepine-3-carboxamide], `Cc1cc(C(=O)N2Cc3ccc(C(=O)N(C)CCc4ccncc4)n3Cc3ccccc32)ccc1-c1ccccc1C(F)(F)F` [Example 137, N-Methyl-10-{[2-methyl-2′-trifluoromethyl-[1,1′-biphenyl]-4-yl]carbonyl}-N-[2-(4-pyridinyl)ethyl]-10,11-dihydro-5H-pyrrolo[2,1-c][1,4]benzodiazepine-3-carboxamide] is lower in inhibition at 0.1 µM: 7% for the first, -1% for the second.

Compared with `COc1ccccc1-c1ccc(C(=O)N2Cc3ccc(C(=O)N4CCCCC4c4cccnc4)n3Cc3ccccc32)cc1C` (stereo not shown) [Example 138, {10-[(2′-Methoxy-2-methyl-[1,1′-biphenyl]-4-yl)carbonyl]-10,11-dihydro-5H-pyrrolo[2,1-c][1,4]benzodiazepin-3-yl}[2-(3-pyridinyl)-1-piperidinyl]methanone], `COc1ccccc1-c1ccc(C(=O)N2Cc3ccc(C(=O)N4CCCCC4c4cccnc4)n3Cc3ccccc32)cc1OC` (stereo not shown) [Example 141, {10-[(2,2′-Dimethoxy-[1,1′-biphenyl]-4-yl)carbonyl]-10,11-dihydro-5H-pyrrolo[2,1-c][1,4]benzodiazepin-3-yl}[2-(3-pyridinyl)-1-piperidinyl]methanone] is higher in inhibition at 0.1 µM: 8% for the first, 9% for the second.

First: COc1ccccc1-c1ccc(C(=O)N2Cc3ccc(C(=O)N4CCCCC4c4cccnc4)n3Cc3ccccc32)cc1 (stereo not shown) [Example 139, {10-[(2′-Methoxy-[1,1′-biphenyl]-4-yl)carbonyl]-10,11-dihydro-5H-pyrrolo[2,1-c][1,4]benzodiazepin-3-yl}[2-(3-pyridinyl)-1-piperidinyl]methanone]
Second: Cc1cc(C(=O)N2Cc3ccc(C(=O)N4CCCCC4c4cccnc4)n3Cc3ccccc32)ccc1-c1ccccc1C(F)(F)F (stereo not shown) [Example 142, (10-{[2-Methyl-2′-trifluoromethyl-[1,1′-biphenyl]-4-yl]carbonyl}-10,11-dihydro-5H-pyrrolo[2,1-c][1,4]benzodiazepin-3-yl)[2-(3-pyridinyl)-1-piperidinyl]methanone]
The inhibition at 0.1 µM of the first is higher: 21% for the first, -5% for the second.

Going from `COc1cc(-c2ccccc2C)c(Cl)cc1C(=O)N1Cc2ccc(C(=O)N3CCCCC3c3cccnc3)n2Cc2ccccc21` (stereo not shown) [Example 140, {10-[(6-Chloro-3-methoxy-2′-methyl-[1,1′-biphenyl]-4-yl)carbonyl]-10,11-dihydro-5H-pyrrolo[2,1-c][1,4]benzodiazepin-3-yl}[2-(3-pyridinyl)-1-piperidinyl]methanone] to `COc1cc(C(=O)N2Cc3ccc(C(=O)N4CCN(c5ccccn5)CC4)n3Cc3ccccc32)ccc1-n1c(C)ccc1C` [Example 145, {10-[4-(2,5-Dimethyl-1H-pyrrol-1-yl)-3-methoxybenzoyl]-10,11-dihydro-5H-pyrrolo[2,1-c][1,4]benzodiazepin-3-yl}[4-(pyridin-2-yl)-1-piperazinyl]methanone], the inhibition at 0.1 µM rises from -3% to -1%.

Going from `COc1cc(C(=O)N2Cc3ccc(C(=O)N(C)CCc4ccccn4)n3Cc3ccccc32)ccc1-n1c(C)ccc1C` [Example 144, 10-[4-(2,5-Dimethyl-1H-pyrrol-1-yl)-3-methoxybenzoyl]-N-methyl-N-[2-(pyridin-2-yl)ethyl]-10,11-dihydro-5H-pyrrolo[2,1-c][1,4]benzodiazepine-3-carboxamide] to `COc1cc(C(=O)N2Cc3ccc(C(=O)N(C)CCc4ccncc4)n3Cc3ccccc32)ccc1-n1c(C)ccc1C` [Example 147, 10-[4-(2,5-Dimethyl-1H-pyrrol-1-yl)-3-methoxybenzoyl]-N-methyl-N-[2-(pyridin-4-yl)ethyl]-10,11-dihydro-5H-pyrrolo[2,1-c][1,4]benzodiazepine-3-carboxamide], the inhibition at 0.1 µM rises from 11% to 15%.

`COc1cc(C(=O)N2Cc3ccc(C(=O)N4CCN(c5ccncc5)CC4)n3Cc3ccccc32)ccc1-n1c(C)ccc1C` [Example 146, {10-[4-(2,5-Dimethyl-1H-pyrrol-1-yl)-3-methoxybenzoyl]-10,11-dihydro-5H-pyrrolo[2,1-c][1,4]benzodiazepin-3-yl}[4-(pyridin-4-yl)-1-piperazinyl]methanone] was tested, and the inhibition at 0.1 µM was 11%.
